Data taken from patent US6080780A, “Use of nitroflavonoids for the treatment of anxiety” (University of Strathclyde, priority 1995, dated 2000).
“Also recorded” adds a separate entry of the source. Where two headings read alike, the source gives them in different places.

What was measured:
GABAλ receptors = test: [3H]-muscimol binding; conditions: 20 μM; data not shown
Protocol: Additional binding studies were performed as described elsewhere: [^3 ]-prazosin binding for α1 adrenergic receptors (Medina et al., 1984), [^3 H]-dihidroalprenolol binding for β adrenergic receptors (Medina et al. 1984), [^3 H]-quinuclinidyl benzylate binding for muscarinic cholinergic receptors (Jerusalinksy et al., 1983), [^3 H]-muscimol binding for GABAλ receptors (Medina et al., 1983) and [^3 H]-8-Hydroxydipropylaminotetralin ([^3 H]--OH--DPAT) binding for serotonin (5-HTlλ) receptors (Nenonene et al., 1984).

mice [1] = test: Sodium thiopental-induced sleeping time; format: in vivo; conditions: for Sleeping Time / Latency: median (interquartile range); for Sleeping Time: VEH 190; for Latency: VEH 233
Protocol: (§1) Sodium thiopental (Abbott) (22 mg/kg) was i.p. injected 15 min after vehicle or DNF. The disappearance and reappearance of the righting reflex were considered indications of latency and duration of sleep, respectively (Anca et al., 1993).
(§2) Mice were injected with sodium thiopental (TP, 22 mg/kg i.p.) 15 min after vehicle (VEH) or 6,3'-dinitroflavone (DNF). The ceiling of sleeping time was 1800 s. Data are expressed in medians (interquartile range). ^3 number of animals per group.

[2] = Sodium thiopental-induced sleeping time; format: in vivo, mice; conditions: mouse, in vivo; thiopental sleep, locomotor activity and holeboard together; read-out: doses with slight depressant action relative to anxiolytic doses
Protocol: as §1, §2

[3] = tested on: muscarinic cholinergic receptors; format: binding; conditions: 20 μM; data not shown
mice [4] = test: Locomotor activity test in mice; format: in vivo, male Swiss mice; conditions: i.p.
Protocol: (§3) Adult male Wistar rats weighing 250 g were used for biochemical experiments. Adult male Swiss male weighing 25-30 g were used for pharmacological assays except for inhibitory avoidance and tail flick tests were done in rats. Animals were housed in a controlled environment, with free access to food and water and maintained on a 12 h/12 h day/night cycle.
(§4) An Opto-varimex® apparatus was used according to Viola et al. (1994). The apparatus discriminates between total and ambulatory activities. An increase in the number of transitions through the beams reflects augmented locomotor activity. In this and all following tests in mice, animals were i.p. injected with the vehicle, or with DNF 20 min before the beginning of the tests. In each session, control mice were tested in parallel with those animals receiving drug treatment.

mice [5] = test: Pentylenetetrazole (PTZ)-induced seizures; format: in vivo
Protocol: The effects of DNF on pentylenetetrazole (PTZ)--induced convulsions were evaluated according to Medina et al., (1990) with slight modifications. PTZ (200 mg/kg) was administered i.p. to mice 15 min after injection of drug or vehicle. The number of mice presenting clonic convulsions was determined.
Data are expressed as the percentage of mice presenting clonic or tonic-clonic seizures. ^3 number of animals per group.

[6] = target: central benzodiazepine receptors; test: Autoradiographic [3H]-FNZ displacement on rat brain sections; format: binding, rat (Wistar); conditions: for Ki: n=3, read-out: Ki, [3H]-FNZ binding, autoradiography
Protocol: Wistar rats were decapitated and brains rapidly removed. Sagittal sections (15 μm in thickness) were prepared at -20° C. using a microtome-cryostat. The tissue slices were kept frozen at -70° C. until used. For DNF displacement curves to [^3 H]--FNZ binding (0.65 nM), tissue sections were incubated for 60 min at 4° C. in 25 mM Tris HCl buffer, pH 7.4, in presence of different concentrations of DNF (1-600 nM). For non-specific binding we used 10 μM FNZ. The incubation was terminated by rinsing the sections for two min in cold buffer. Sections were briefly dipped in cold distilled water and dried rapidly under a stream of cold air (Niddam et al., 1987).
Autoradiograms were generated by apposing the slide-mounted tissue section to tritium-sensitive film (Hyperfilm Amersham) in a light-proof X-ray cassette at 4° C. for two weeks.
The optical densities from different brain regions were converted first to radioactive units and then to fmol/mm^2 using the [^3 H] standards on the film with the aid of a computerized image densitometric analysis system (MCID 4.02). The values were normalized and the Ki values were determined using a computerized program (Graph-Pad Prism) Bernabeu et al., 1995; Cammarota et al., 1995).

mice [7] = test: Elevated plus maze test in mice (Section 2); format: in vivo, male Swiss mice
Protocol: as §3, §4
The test was performed in the same session immediately after the locomotor activity measurement (Viola et al., 1994; Wolfman et al., 1994). […] A series of experiments with the injection of the selective central benzodiazepine receptor antagonist Ro 15-1788 (File and Pellow, 1986) was also carried out.

mice [8] = test: Horizontal wire test in mice; format: in vivo, male Swiss mice
Protocol: as §3
This test was carried out as previously described (Viola et al., 1994; Wolfman et al., 1994; Viola et al., 1995). The test took place after two trials, performed at 5 min intervals. A myorelaxant drug will impair mice to grasp the wire (Bonetti et al., 1982). The effect of DNF )1 mg/kg) on DZ-induced myorelaxation was also determined.

Compound: O=c1cc(-c2cccc([N+](=O)[O-])c2)oc2ccc([N+](=O)[O-])cc12 [Compound (II), 6,3'-dinitroflavone]
- displacement of [3H]-muscimol binding (GABAλ receptors): did not displace
- latency or sleeping time (in words) (mice [1]; 1 mg/kg): did not change the latency or the sleeping time
- Sleeping Time (mice [1]; DNF 1 mg/kg + TP 22 mg/kg, n=7): 207 (20/600) s
- Latency (mice [1]; DNF 1 mg/kg + TP 22 mg/kg, n=7): 230 (164/300) s
- Latency (mice [1]; DNF 3 mg/kg + TP 22 mg/kg, n=12): 237 (202/293) s
- Sleeping Time (mice [1]; DNF 3 mg/kg + TP 22 mg/kg, n=12, p<0.05): 1277 (248/1800) s
- latency to sleep (in words) (mice [1]; i.p., 3 mg/kg): No changes were observed in latency to sleep
- sleeping time (in words) (mice [1]; i.p., 3 mg/kg, p<0.05): augmented the sleeping time
- selectivity ratio [2]: 100 to 300
- displacement of [3H]-quinuclidinyl benzilate binding [3]: did not displace
- spontaneous ambulatory locomotion (mice [4]; 0.3 mg/kg, p<0.05): slight increase
- reduction in the locomotion (mice [4]; 10 mg/kg, p<0.01): 55%
- spontaneous ambulatory locomotion (mice [4]; up to 3 mg/kg): no effect on spontaneous ambulatory locomotion
- % of convulsing mice (mice [5]; DNF 0.03 mg/kg, n=6): 100%
- % of convulsing mice (mice [5]; DNF 0.1 mg/kg, n=12): 75%
- % of convulsing mice (mice [5]; DNF 0.3 mg/kg, n=15): 80%
- % of convulsing mice (mice [5]; DNF 1.0 mg/kg, n=13): 92.4%
- % of convulsing mice (mice [5]; DNF 3.0 mg/kg, n=5): 100%
- % of convulsing mice (mice [5]; DNF 6.0 mg/kg, n=7): 100%
- prevention of PTZ-induced seizures (mice [5]; mice, 30 μg/kg-6 mg/kg, PTZ 200 mg/kg): did not prevent the seizures
- anticonvulsant effects (mice [5]; up to 10 mg/kg): did not evidence anticonvulsant
- Ki ([6]; dentate gyrus): 82.2 ± 7.6 nM
- Ki ([6]; parietal cortex): 30.1 ± 2.6 nM
- potency to displace [3H]-FNZ, cerebellum vs dentate gyrus ([6]; ratio): 5 times
- Ki ([6]; striatum): 53.7 ± 7.3 nM
- effect of Ro 15-1788 on DNF anxiolytic effect (mice [7]; mice, DNF 30 μg/kg + Ro 15-1788 1 mg/kg, listed as DNF, 1 mg/kg): blocked by the injection of Ro 15-1788; also recorded: blocked by the administration of the selective benzodiazepine antagonist Ro 15-1788
- total arm entries (mice [7]; mice, i.p., 30 μg/kg): No differences were observed in the total arm entries
- percentage of entries in the open arms (mice [7]; mice, i.p., 30 μg/kg, p<0.01): increased the percentage of entries in the open arms
- anxiolytic potency in comparison to DZ (mice [7]; ratio to diazepam): 30 times
- effect on DZ-induced myorelaxation (mice [8]; mice, DNF plus DZ (1 mg/kg), listed as DNF): counteracted; also recorded: able to reverse the myorelaxant effect of the full agonist DZ; also recorded: prevents the muscle relaxation effect of a full benzodiazepine receptor agonist
- animals showing myorelaxant effect, DNF plus DZ (mice [8]; mice, i.p., DNF plus DZ (1 mg/kg), p<0.001): 2 animals out of 15
- percentage of mice grasping the wire (mice [8]; mice, i.p., up to 10 mg/kg): did not affect the percentage of mice grasping
- myorelaxant effects (mice [8]; up to 10 mg/kg): did not evidence anticonvulsant, myorelaxant
